Measurements: US6399654B1, “Biflavanoids and derivatives thereof as antiviral agents” (priority 1995, dated 2002)
≈ marks a conversion by molar mass, not a printed value.

What was measured:
[1] = in vitro; details: dog, Neutral Red IC50 (cytotoxic)
[2] = test system: Influenza A (H3N2) Beijing/32/92; test: microbe, parasite or virus in culture; type: cell-based, influenza A virus; details: Influenza A virus, MDCK; Influenza A (H3N2) Beijing/32/92; read-out: Neutral Red EC50
[3] = test system: Influenza B Panama/45/90; test: microbe, parasite or virus in culture; type: cell-based; details: Influenza B virus, MDCK, read-out: Neutral Red EC50

O=c1cc(-c2ccc(O)c(-c3c(O)cc4oc(-c5ccc(O)cc5)cc(=O)c4c3O)c2)oc2cc(O)cc(O)c12 [Robustaflavone (3), robustaflavone]
IC50 ([1]; Influenza A (H1N1) test): ~32 µg/mL (≈ 59.4 µM) | IC50 ([1]; Influenza A (H3N2) test): ~100 µg/mL (≈ 186 µM) | IC50 ([1]; Influenza B test): 100 µg/mL (≈ 186 µM) | EC50 [2]: 1.8 µg/mL (≈ 3.34 µM) | EC50 [3]: 0.22 µg/mL (≈ 0.409 µM)
